{"source": "patent US20200345013A1", "about": "“ANTI-ADHERENT BOTANICAL COMPOSITIONS” (priority 2014, published 2020)", "key": {"C. albicans SC5314": {"test_system": "C. albicans SC5314", "test": "Screening anti-adhesion effect on porcine skin, C. albicans", "type": "cell-based, Candida albicans", "conditions": "agent 5% in water, 2 h adhesion, average +/- SD, n = 2, positive = anti-adherent", "experimental": "Preparation of C. albicans Cell Suspension • 1. Single cell suspension of C. albicans SC5314 was prepared as follows. Stock culture of C. albicans SC5314 was streaked onto YPD agar (YPDA) and incubated at 30° C. overnight. • 2. Single colonies were subcultured in YPD broth (YPDB) and incubated 30° C., 200 rpm overnight. • 3. Overnight culture in YPDB was subcultured in YPD broth again and incubated 30° C., 200 rpm for 48 hours. • 4. Cells were collected by centrifugation (4000×g, 10 minutes) at 4° C., washed three times with sterile water, and then resuspended in sterile water a final concentration of 10^9 CFU/mL. • 5. The suspension were stored at 4° C. at least 1 day, then subcultured into YPDB to a final concentration of 10^6 CFU/mL. • 6. After 48 hours incubation, cell suspension was examined under microscope for single cell percentage. • 7. […]\nScreening the Anti-Adhesion Effect of Botanicals/Compounds on Porcine Skin • 1. […] After incubation, colonies on plates were counted. Reduction (%) of colony forming unit (CFU) from the average counts on untreated skin was calculated. • 9. […] After incubation, plaques on plates were counted. • d. Reduction (%) of plaque forming unit (PFU) from the average counts on untreated skin was calculated."}, "C. albicans": {"test_system": "C. albicans", "test": "High Throughput Anti-adherent Test, polystyrene, one-hour adhesion, C. albicans", "type": "cell-based, Candida albicans", "conditions": "agent 5% in water; percentage of microbes that remain attached to treated polystyrene; low = stronger anti-adherent effect; bracketed = adherent effect; * = single measurement, else n = 2", "from_the_text": "(§1) The botanical extracts listed in Table 3 were initially screened for their effect against microbial adhesion using the High Throughput Anti-adherent Test Method described below. The effect of the botanical filtrates as the percentage of control-corrected A490 is shown. For bacterial strains, the corrected A490 were all less than 20% of the untreated control. For C. albicans, the corrected A490 of the botanical filtrates were less than 70% of the untreated control. The lower percentage value indicates a stronger inhibitory effect.\n(§2) II. High Throughput Anti-Adherence Test Method\n(§3) This test method specifies the operational parameters required to grow and or prevent the formation of bacterial attachment using a high throughput screening assay. The assay device consists of a plastic lid with ninety-six (96) pegs and a corresponding receiver plate with ninety-six (96) individual wells that have a maximum 200 μL working volume. Biofilm is established on the pegs under static batch conditions (i.e., no flow of nutrients into or out of an individual well). • 1. […]"}, "[1]": {"test_system": "Klebsiella pneumonia CICC 21519 (ATCC 4352)", "test": "Screening anti-adhesion effect on porcine skin, K. pneumoniae", "type": "cell-based, Klebsiella pneumoniae", "conditions": "two-hour adhesion time, Table 2", "method": "Klebsiella pneumonia CICC 21519 (ATCC 4352) and Staphylococcus aureus CICC 10384 (ATCC 6538P) were purchased from China Center of Industrial Culture Collection. • 2. […] Dilutions of overnight cultures in PBS buffer were used for the screening.\nAliquots (100 μL) of botanical/compounds suspensions were applied to porcine skins, three replicates. • 3. Skins were allowed to air dry for 2 hours at ˜50% relative humidity. • 4. Inocula (100 μL) were applied to the porcine skin, and incubated at 37° C. for 2 hours. • 5. The skins were washed three times by applying 5 ml of PBS+0.01% Tween 80 onto the skins and then removing the liquid by pipetting. • 6. […] Microbial cells were enumerated by spread plate method. • a. […] For S. aureus and K. pneumoniae, the suspension and dilutions were plated onto TSA, and incubated at 37° C. for 1 day. • 8. After incubation, colonies on plates were counted. Reduction (%) of colony forming unit (CFU) from the average counts on untreated skin was calculated. • 9."}, "K. pneumoniae": {"test_system": "K. pneumoniae", "test": "High Throughput Anti-adherent Test, polystyrene, one-hour adhesion, K. pneumoniae", "type": "cell-based, Klebsiella pneumoniae", "conditions": "agent 5% in water; percentage of microbes that remain attached to treated polystyrene; low = stronger anti-adherent effect; average +/- SD, n = 2", "from_the_text": "as §1, §2, §3"}, "S. aureus": {"test_system": "S. aureus", "test": "High Throughput Anti-adherent Test, polystyrene, one-hour adhesion, S. aureus", "type": "cell-based, Staphylococcus aureus", "conditions": "agent 5% in water; percentage of microbes that remain attached to treated polystyrene; low = stronger anti-adherent effect; average +/- SD, n = 2", "from_the_text": "as §1, §2, §3"}, "[2]": {"test_system": "Staphylococcus aureus CICC 10384 (ATCC 6538P)", "test": "Screening anti-adhesion effect on porcine skin, S. aureus", "type": "cell-based", "experimental": "Preparation of Bacterial Cell Suspensions • 1. Klebsiella pneumonia CICC 21519 (ATCC 4352) and Staphylococcus aureus CICC 10384 (ATCC 6538P) were purchased from China Center of Industrial Culture Collection. • 2. Stock culture of each species was streaked onto TSA plate (OXOID, […], England) and incubated at 37° C. overnight. • 3. Single colonies were subcultured in TSB (OXOID, […], England) and incubated 37° C., 200 rpm overnight. • 4. Dilutions of overnight cultures in PBS buffer were used for the screening.\nScreening the Anti-Adhesion Effect of Botanicals/Compounds on Porcine Skin • 1. Porcine skins were aseptically cut to squares of 2×2 cm, and each was placed in a sterile Petri dish (CITOTEST LABWARE MANUFACTURING CO., LTD, Haimen, Jiangsu). • 2. Aliquots (100 μL) of botanical/compounds suspensions were applied to porcine skins, three replicates. • 3. Skins were allowed to air dry for 2 hours at ˜50% relative humidity. • 4. Inocula (100 μL) were applied to the porcine skin, and incubated at 37° C. for 2 hours. • 5. […] After incubation, colonies on plates were counted. Reduction (%) of colony forming unit (CFU) from the average counts on untreated skin was calculated. • 9. […] After incubation, plaques on plates were counted. • d. Reduction (%) of plaque forming unit (PFU) from the average counts on untreated skin was calculated."}}}
{"smiles": "Oc1ccc(C=Cc2cc(O)cc(O)c2)cc1", "note": "[Resveratrol]", "values": [{"measurement": "Reduction of Adherent Cells (%) from Porcine Skin Control (Two-Hour Adhesion Time), C. albicans", "setting": "C. albicans SC5314", "value": "29.8 ± 11.2", "unit": "%"}, {"measurement": "Reduction of Adherent Cells (%) from Polystyrene Control (One-Hour Adhesion Time), C. albicans", "setting": "C. albicans", "value": "25.5 ± 4.9", "unit": "%"}, {"measurement": "Anti-adherence on porcine skin in words, K. pneumonia", "setting": "[1]", "value": "failed to demonstrate anti-adherence"}, {"measurement": "Reduction of Adherent Cells (%) from Polystyrene Control (One-Hour Adhesion Time), K. pneumoniae", "setting": "K. pneumoniae", "value": "7.0 ± 2.8", "unit": "%"}, {"measurement": "Reduction of Adherent Cells (%) from Polystyrene Control (One-Hour Adhesion Time), S. aureus", "setting": "S. aureus", "value": "8.0 ± 9.9", "unit": "%"}, {"measurement": "Reduction of Adherent Cells (%) from Porcine Skin Control (Two-Hour Adhesion Time), S. aureus", "setting": "[2]; agent 5% in water, 2 h adhesion, average +/- SD, n = 2, positive = anti-adherent", "value": "−4.2 ± 19.1", "unit": "%"}, {"measurement": "Anti-adherence on porcine skin in words, S. aureus", "setting": "[2]; two-hour adhesion time, Table 2", "value": "failed to demonstrate anti-adherence"}]}
